Test results as given in patent EP0316212B1 (priority 1987, dated 1989).
Where two headings read alike, the source gives them in different places.

Key:
[1] = molecular target: reverse transcriptase du HIV1 (Human immunodeficiency virus type 1 group M subtype B, UniProt P04585); test: Reverse transcriptase activity of HIV1 incubated with NP derivatives, tested immediately; format: biochemical; settings: témoin virus 11924
Experimental: (§1) La technique de culture et de titrage de la reverse-transcriptase du HIV est rappelée ci-après : Des lymphocytes humains, préalablement activés par la PHA (phytohémagglutinine) sont incubés dans un milieu nutritif (RPMI 1640 + sérum de veau foetal + antibiotiques + β-mercaptoéthanol 10⁻⁵M + 2»g/ml polybrene + sérum anti-interféron 1/2000 + IL2 10%). Après centrifugation, le culot cellulaire est mis en présence du HIV1 (10.000 cpm/10⁶ cellules) pendant 1 heure à 37°. Après lavage et centrifugation, les cellules sont resuspendues dans du milieu nutritif. Les surnageants de culture cellulaire sont suivis pendant plusieurs jours pour leur activité reverse transcriptase. Ils sont centrifugés 7 minutes à 95000 tours et le culot est lysé par du Triton® 0,1% (produit Touzart et Matignon). Un mélange réactionnel est ajouté (Tris, DTT (dithiothreitol), MgCl₂, KCl, PolyA, Oligo dT, ³HTTP, H₂O) et après 1 heure d'incubation à 37°C, la réaction est arrêtée avec du pyrophosphate de sodium et de l'acide nucléique de levure est ajouté pour aider la précipitation. De l'acide trichloracétique (TCA) est ajouté et la solution est laissée 15 minutes à 4°C. Après filtration sous vide avec des filtres millipores 0.45 »m et plusieurs lavages avec du TCA (0.5%), on procède au rinçage à l'éthanol, au sèchage en étuve 37° et enfin au comptage.
Le HIV1 est incubé 1 heure à 37° en présence d'AcN (D23, 621, N5-12), d'anticorps anti-NP (TNP11) ou en présence des dérivés NP (DNP-glycine et DNP-lysine). L'activité reverse transcriptase du HIV1 est testée immédiatement (cas des dérivés DNP-glycine et DNP-lysine). Alternativement, des lymphocytes humains sont infectés par le HIV1 préincubé avec les produits à tester, et la culture cellulaire est observée pendant 3 semaines par titrage de la reverse transcriptase. Durant cette période les cultures des lymphocytes humains ne contiennent pas d'anticorps ni d'antigène.

HIV1 = HIV1 infection of human lymphocytes preincubated with antibodies or NP derivatives, reverse transcriptase in supernatants; format: cell-based; settings: for activité reverse transcriptase (surnageants de culture): dérivés NP, concentration not given
Experimental: as §1
Les lymphocytes humains, préalablement activés par la PHA, sont incubés en présence des AcN, des anticorps anti-NP et des dérivés NP (DNP-glycine, DNP-lysine) pendant une nuit à 37°C. Le lendemain, le culot cellulaire est mis en présence du HIV1 pendant 1 heure à 37°C au bain-marie et les cellules sont resuspendues dans du milieu nutritif en présence des produits à tester. Les surnageants de culture sont testés pour l'activité reverse transcriptase pendant 3 semaines.

[2] = tested on: IHDT-6 (International Health Division-Tumor-6); format: cell-based

| Compound | Activité reverse transcriptase ([1]; 10^-3M) | Activité reverse transcriptase ([1]; 10^-6M) | Activité reverse transcriptase ([1]; 10^-7M) | Activité reverse transcriptase ([1]; 10^-9M) | activité reverse transcriptase (surnageants de culture) (HIV1; 3 jours après l'infection, témoin virus 562) | activité reverse transcriptase (surnageants de culture) (HIV1; 6 jours après l'infection, témoin virus 1274) | activité reverse transcriptase (surnageants de culture) (HIV1; 10 jours après l'infection, témoin virus 94474) | activité reverse transcriptase (surnageants de culture) (HIV1; 13 jours après l'infection, témoin virus 63944) | activité reverse transcriptase (surnageants de culture) (HIV1; 18 jours après l'infection, témoin virus 73368) | activité reverse transcriptase (surnageants de culture) (HIV1; 20 jours après l'infection, témoin virus 26840) | activité reverse transcriptase / infectivité virale par rapport au témoin virus (result in words) (HIV1; lymphocytes incubés avec les produits) | % Inhibition ([2]; 0,3 mg/ml) | % Inhibition ([2]; 0,6 mg/ml) | % Inhibition ([2]; 0,07 mg/ml) | % Inhibition ([2]; 0,15 mg/ml) | % Inhibition ([2]; 1,2 mg/ml) | % Inhibition ([2]; 2,4 mg/ml) |
| --- | --- | --- | --- | --- | --- | --- | --- | --- | --- | --- | --- | --- | --- | --- | --- | --- | --- |
| O=C(O)CNc1ccc([N+](=O)[O-])cc1[N+](=O)[O-] [DNP-glycine, DNP-Glycine] | 5444 | 3424 | 4090 | 3638 | 1064 | 890 | 1234 | 1572 | 1276 | 1270 | peuvent conduire à une inhibition totale de l'infectivité virale | – | – | – | – | – | – |
| TNP-BSA | – | – | – | – | – | – | – | – | – | – | – | 37% | 51% | 21% | 31% | 73% | 72% |
